In brackets after ≈: the same amount, converted by molar mass. Activity calls are given as the source filed them. The rule behind the calls is not given here.

The source of these data is ChEMBL document CHEMBL5143602, “Design, synthesis and antibacterial evaluation of pleuromutilin derivatives” (Bioorg Med Chem, 2022).

Assay [1] deals with Mycoplasmoides pneumoniae. The assay can be described thus: Antibacterial activity against drug resistant Mycoplasma pneumoniae assessed as inhibition of bacterial growth incubated for 18 hrs by two-fold serial dilution method. Type of assay: functional.
Assay [2] relates to Mycoplasmoides pneumoniae. In words: Antibacterial activity against Mycoplasma pneumoniae ATCC15531 assessed as inhibition of bacterial growth incubated for 18 hrs by two-fold serial dilution method. In kind it is functional.
Assay [3] relates to Enterococcus faecium. In words: Antibacterial activity against Enterococcus faecium ATCC19434 assessed as inhibition of bacterial growth incubated for 18 hrs by two-fold serial dilution method. Type of assay: functional.
For assay [4], the system named is Staphylococcus aureus. In words: Antibacterial activity against methicillin-sensitive Staphylococcus aureus ATCC 29213 assessed as inhibition of bacterial growth incubated for 18 hrs by two-fold serial dilution method. Type of assay: functional.
For assay [5], the system named is Staphylococcus epidermidis. In words: Antibacterial activity against Staphylococcus epidermidis ATCC12228 assessed as inhibition of bacterial growth incubated for 18 hrs by two-fold serial dilution method. Type of assay: functional.
Assay [6] concerns Mycoplasmoides pneumoniae. The assay can be described thus: Antibacterial activity against Mycoplasma pneumoniae ATCC29342 assessed as inhibition of bacterial growth incubated for 18 hrs by two-fold serial dilution method. Type of assay: functional.
Assay [7] has as its system Staphylococcus aureus. The assay can be described thus: Antibacterial activity against methicillin-resistant Staphylococcus aureus ATCC 43300 assessed as inhibition of bacterial growth incubated for 18 hrs by two-fold serial dilution method. In kind it is functional.
Assay [8] deals with HepG2. The assay can be described thus: Cytotoxicity against human HepG2 cells assessed as cell growth inhibition measured after 72 hrs by MTT assay. Conditions: HepG2, 72 h. Type of assay: functional, cell-based. In general terms: Tetrazolium dyes change colour on reduction, which living cells bring about.
The test system of assay [9] is MCF7. In words: Cytotoxicity against human MCF7 cells assessed as cell growth inhibition measured after 72 hrs by MTT assay. Conditions: MCF7, 72 h. In kind it is functional, cell-based.
Assay [10] deals with HT-29. The assay can be described thus: Cytotoxicity against human HT-29 cells assessed as cell growth inhibition measured after 72 hrs by MTT assay. In kind it is functional, cell-based. Conditions: HT-29, 72 h.
Assay [11] has as its system U-87 MG. In words: Cytotoxicity against human U87 cells assessed as cell growth inhibition measured after 72 hrs by MTT assay. Type of assay: functional, cell-based, U-87MG ATCC.
The test system of assay [12] is HGC-27. In words: Cytotoxicity against human HGC-27 cells assessed as cell growth inhibition measured after 72 hrs by MTT assay. Type of assay: functional, cell-based. Conditions: HGC-27, 72 h.
The test system of assay [13] is Staphylococcus aureus. The assay can be described thus: Bactericidal activity against methicillin-resistant Staphylococcus aureus ATCC 43300 assessed as decrease in bacterial propagation at 2 to 8 times MIC and measured after 24 hrs by time kill curve assay relative to control. Type of assay: functional, organism-based.
Assay [14] has as its system Staphylococcus aureus. The assay can be described thus: Bactericidal activity against methicillin-resistant Staphylococcus aureus ATCC 43300 at 4 times MIC and measured after 24 hrs by time kill curve assay relative to control. Type of assay: functional, organism-based.

Usually MIC stands for the lowest concentration that inhibits growth of the organism. One may read the IC50 as the midpoint of a concentration-inhibition curve. For the compound `C=C[C@]1(C)C[C@@H](OC(=O)CNC(=O)Nc2cccc(Br)c2)[C@]2(C)[C@H](C)CC[C@]3(CCC(=O)[C@H]32)[C@@H](C)[C@@H]1O`, the MIC in assay [1] is 1 µg/mL (≈ 1.74 µM); in assay [2], 0.25 µg/mL (≈ 0.434 µM); in [3] it was 4 µg/mL (≈ 6.95 µM); in assay [4] it was 0.0625 µg/mL (≈ 0.109 µM); in [5], more than 64 µg/mL; in assay [6] it was 0.25 µg/mL (≈ 0.434 µM). In addition, in [7], the MIC is 0.25 µg/mL (≈ 0.434 µM). Moreover, the IC50 is more than 10 µM in [8]; more than 10 µM in assay [9]; more than 10 µM in assay [10]; more than 10 µM in assay [11]; 3.95 µM in assay [12].

For `C=C[C@]1(C)C[C@@H](OC(=O)CNC(=O)Nc2ccccc2Br)[C@]2(C)[C@H](C)CC[C@]3(CCC(=O)[C@H]32)[C@@H](C)[C@@H]1O`, the MIC in assay [1] is 2 µg/mL (≈ 3.47 µM); in assay [2], 0.5 µg/mL (≈ 0.869 µM); in assay [3], 32 µg/mL (≈ 55.6 µM); in assay [4], 0.25 µg/mL (≈ 0.434 µM); in [5] it was more than 64 µg/mL; in [6], 0.5 µg/mL (≈ 0.869 µM). The MIC in assay [7] came out at 0.25 µg/mL (≈ 0.434 µM). Moreover, the IC50 in assay [8], in [9], in [10], in assay [11] and in assay [12] was more than 10 µM in each case.

As for `C=C[C@]1(C)C[C@@H](OC(=O)CNC(=O)Nc2ccc(F)cc2)[C@]2(C)[C@H](C)CC[C@]3(CCC(=O)[C@H]32)[C@@H](C)[C@@H]1O`, the MIC is 1 µg/mL (≈ 1.94 µM) in [1]; 0.25 µg/mL (≈ 0.486 µM) in [2]; 16 µg/mL (≈ 31.1 µM) in assay [3]; 0.5 µg/mL (≈ 0.972 µM) in assay [4]; more than 64 µg/mL in assay [5]; 0.125 µg/mL (≈ 0.243 µM) in [6]. In addition, the MIC in assay [7] is 0.125 µg/mL (≈ 0.243 µM). In addition, the IC50 in [8], in [9], in assay [10], in [11] and in assay [12] was more than 10 µM throughout.

Take `C=C[C@]1(C)C[C@@H](OC(=O)CNC(=O)Nc2ccc(OC)cc2)[C@]2(C)[C@H](C)CC[C@]3(CCC(=O)[C@H]32)[C@@H](C)[C@@H]1O`: the MIC in [1] is 0.5 µg/mL (≈ 0.949 µM); in [2], 0.125 µg/mL (≈ 0.237 µM); in [3], 8 µg/mL (≈ 15.2 µM); in assay [4], 0.0625 µg/mL (≈ 0.119 µM); in [5] it was more than 64 µg/mL; in assay [6], 0.0625 µg/mL (≈ 0.119 µM). The MIC in assay [7] is 0.5 µg/mL (≈ 0.949 µM). Also, the result in assay [13] was Active. The IC50 in assay [8], in assay [9], in [10], in [11] and in assay [12] was more than 10 µM throughout.

For the compound `C=C[C@]1(C)C[C@@H](OC(=O)CSCCN(CC)CC)[C@]2(C)[C@H](C)CC[C@]3(CCC(=O)[C@H]32)[C@@H](C)[C@@H]1O` [TIAMULIN], the result in assay [14] was Active. Besides, the MIC was found to be 16 µg/mL (≈ 32.4 µM) in [3], 0.5 µg/mL (≈ 1.01 µM) in assay [4], 32 µg/mL (≈ 64.8 µM) in assay [5] and 0.25 µg/mL (≈ 0.506 µM) in assay [7]. In addition, the IC50 in [8], in assay [9], in [10], in assay [11] and in [12] was more than 10 µM in each case.

Take `C=C[C@]1(C)C[C@@H](OC(=O)CO)[C@]2(C)[C@H](C)CC[C@]3(CCC(=O)[C@H]32)[C@@H](C)[C@@H]1O` [PLEUROMULIN]: the MIC in assay [1] is 0.25 µg/mL (≈ 0.66 µM); in [2], 0.125 µg/mL (≈ 0.33 µM); in [3] it was 32 µg/mL (≈ 84.5 µM); in [4], 1 µg/mL (≈ 2.64 µM); in [5], 16 µg/mL (≈ 42.3 µM); in assay [6], 0.0625 µg/mL (≈ 0.165 µM). In addition, the MIC in assay [7] came out at 2 µg/mL (≈ 5.28 µM).

On to `C=C[C@]1(C)C[C@@H](OC(=O)CNC(=O)Nc2ccc(F)cc2F)[C@]2(C)[C@H](C)CC[C@]3(CCC(=O)[C@H]32)[C@@H](C)[C@@H]1O`, for which the MIC in assay [1] was 1 µg/mL (≈ 1.88 µM); in assay [2] it was 0.25 µg/mL (≈ 0.469 µM); in assay [3], 16 µg/mL (≈ 30 µM); in assay [4] it was 0.25 µg/mL (≈ 0.469 µM); in assay [5], more than 64 µg/mL; in assay [6], 0.125 µg/mL (≈ 0.235 µM). The MIC in assay [7] was determined as 0.25 µg/mL (≈ 0.469 µM). Also, the IC50 in assay [8], in assay [9], in assay [10], in [11] and in [12] was more than 10 µM in each case.
